Data taken from article PMC2784635 (Bioorganic & medicinal chemistry, 2008).

Tested on: strobilurin resistant strain of Plasmopara viticola
Test: cross-resistance test on small vine plants in the glasshouse

## COC(=O)CNC(=O)/C=C\C/C=C\NC(=O)/C=C(C)/C=C/[C@H](C)[C@H](OC)[C@H](C)[C@H](/C=C/c1ccccc1)OC [Compound 8, crocacin A]
  cross-resistance to strobilurin resistant Plasmopara viticola: little or no cross-resistance
